Data published in patent US10188633B2, “Identification of small molecules that facilitate therapeutic exon skipping” (The Regents of the University of California, priority 2011, dated 2019).
Several values for one entry are separate records, joined by “and”; a condition that tells them apart may be missing. Identical values can stand only once. Like-named read-outs stand apart in the source and are kept apart here.

System: human DMD exon 50 GFP based reporter
Assay: BioMol high throughput screen in Ex50-GFP reporter C2C12 myoblasts, with or without AON6
Assay type: cell-based, mouse
Conditions: for Average Fluorescence (n = 3): average of 3 replicate plates
Text: Small molecule libraries were screened for exon skipping promoting activity in C2C12 myoblasts expressing a human DMD exon 50 GFP based reporter. […] In the reporter cells, successful skipping of DMD exon 50 creates in-frame GFP expression. Number of cells that were fluorescing was quantified using a high content cell imager in 384 well plate format. Fluorescence was normalized by subtracting the average fluorescence value of the carrier (DMSO) controls. Fluorescence readouts are plotted for the BioMol library screen both with (+AO) and without (−AO) from Source Plate 1 (containing the Orphan Ligand, Ion Channel, Enzyme Inhibitor, and Endocannabanoid libraries, n=300). Each point for the DMSO controls, all compounds, and the Top 5% from Source Plate 1 (n=15) represents the average normalized fluorescence of 6 replicates in the −AO screen and 3 replicates in the +AO screen. […] Individual points for dantrolene are plotted with the bold horizontal line indicating the median. The short horizontal lines interspersed among the data points indicate 1, 2, and 3 standard deviations away from the DMSO treatment mean fluorescence.
In contrast to prior screens aimed at identifying small molecules which impact exon skipping, our screen is unique at least because it relies on robust quantitation of a skipping reporter in the context of a muscle lineage cell in the presence and absence of suboptimal AO. These screens were performed using a mouse muscle cell line (C2C12) expressing a human DMD exon 50 GFP based reporter selected to minimize experimental variation and sensitivity in the context of an automated and quantitative fluorescent scanning system.
AO was added prior to small molecule incubation in an effort to identify molecules that facilitate AO skipping rather than AO delivery. The fluorescence induced by each compound was normalized to a vehicle controls per plate to correct for plate to plate variability. Fluorescence was averaged across replicate plates (n=6 without AO screen, n=3 with AO screen). Compounds were rank ordered based on average intensity of fluorescence and difference between the without AO and with AO screen (FIG. 1 and Table 2).
A stable clone was generated from C2C12 cells transfected with a human exon 50 DMD GFP reporter (ex50GFP) that has been previously described. Ex50GFP reporter myoblasts were seeded into uncoated 384 well plates and were incubated for 4 hours either with or without 300 nM of 2′-O-methyl phosphorothioate AON6 [5′[…] 3′ (SEQ ID NO:1)] targeting the human exon 50 splice donor site. Cells were transfected with AON6 using the FUGENE (Roche) transfection reagent per manufacturer's instructions. Following AON6 incubation, each component of the BioMol library (n=503) was screened at 10 uM concentration with a final concentration of the DMSO carrier being 1%. Forty-eight hours later fluorescence was measured using the MicroXpress high content imager and analyzed using MetaXpress. Immediately preceding imaging, DNA was stained with Hoescht for 30 min. The BioMol screen without AO (−AO) was performed in 6 replicates, and the with AO (+AO) screen was performed in 3 replicates. For the screen analysis raw fluorescence values were normalized to carrier controls present on each plate by subtracting the values. Negative fluorescence values were set to 0. The data from each compound were averaged from all replicates. For secondary screening by 12 or 16 point dose response, Ex50GFP myoblasts or C2C12 cells without the reporter were seeded on uncoated 384 well plates. A sub-optimal dose of AON6 targeting DMD exon 50 was added for 4 hours.

[1] = With AON6 screen, compound 10 uM, 48 h, fluorescence normalized by subtracting DMSO carrier controls
[2] = With AON6 screen, compound 10 uM, 48 h, normalized to DMSO carrier controls
[3] = With AON6 screen, compound 10 uM
[4] = Without AON6 screen, compound 10 uM, 48 h, normalized to DMSO carrier controls
[5] = Without AON6 screen, compound 10 uM, average of 6 replicate plates

Compound | Fluorescence Plate 1 [1] | Fluorescence Plate 2 [2] | Fluorescence Plate 3 [2] | Average Fluorescence (n = 3) [3] | Fluorescence Plate 1 [4] | Fluorescence Plate 2 [4] | Fluorescence Plate 3 [4] | Fluorescence Plate 4 [4] | Fluorescence Plate 5 [4] | Fluorescence Plate 6 [4] | Average Fluorescence (n = 6) [5] | other results
COc1cc(/C=C(\C#N)C(N)=O)cc(CSc2nc3ccccc3s2)c1O [AG-825] | 17.24 | 23.38 | 11.53 | 17.38 | – | – | – | – | – | – | – | –
N#C/C(=C/c1ccc(O)c(O)c1)C(=O)NCc1ccccc1 [AG-490] | 7.17 | 30.27 | 13.54 | 16.99 | – | – | – | – | – | – | – | –
NCCNS(=O)(=O)c1cccc2cnccc12 [H-9] | 18.09 | 19.17 | 13.25 | 16.84 | – | – | – | – | – | – | – | –
O=Cc1c2c(cc3c1=Nc1ccccc1-3)=Nc1ccccc1-2 [6-FORMYLINDOLO [3,2-b] CARBAZOLE] | 30.05 | 30.08 | 32.59 | 30.90 | – | – | – | – | – | – | – | –
COc1ccc2c3c([nH]c2c1)C(C)=NCC3.Cl [HARMALINE HCl] | 15.00 | 42.55 | 0.22 | 19.26 | 31.97 | 27.56 | 27.06 | 22.50 | 16.09 | 19.75 | 24.15 | –
N#C/C(=C\c1ccc(O)c(O)c1)C(N)=O [TYRPHOSTIN 46] | 8.61 | 30.70 | 14.09 | 17.80 | – | – | – | – | – | – | – | –
N#C/C(=C\c1ccc(O)c(O)c1)C(=O)Nc1ccccc1 [AG-494] | 19.38 | 25.36 | 25.25 | 23.33 | 5.92 | 1.23 | 1.65 | 7.58 | 3.54 | 5.26 | 4.20 | –
N#CC(=C(N)Sc1ccccc1N)C(C#N)=C(N)Sc1ccccc1N [U-0126] | 17.87 | 35.65 | 16.65 | 23.39 | – | – | – | – | – | – | – | –
CC(n1cc(C[C@H](N)C(=O)O)c2ccccc21)n1cc(C[C@H](N)C(=O)O)c2ccccc21 | 20.72 | 11.15 | 22.18 | 18.02 | – | – | – | – | – | – | – | –
COC[C@H]1OC(=O)c2coc3c2[C@@]1(C)C1=C(C3=O)[C@@H]2CCC(=O)[C@@]2(C)C[C@H]1OC(C)=O [WORTMANNIN] | – | – | – | – | 4.99 | 3.07 | 4.23 | 5.92 | 6.44 | 3.78 | 4.74 | –
CCN(CC)CCNC(=O)c1ccc(N)cc1 [PROCAINAMIDE] | 13.80 | 19.66 | 20.81 | 18.09 | – | – | – | – | – | – | – | –
N=C(NCc1ccc(Cl)c(Cl)c1)NC(=O)c1nc(Cl)c(N)nc1N [DICHLOROBENZAMIL] | – | – | – | – | 22.19 | 15.01 | 13.67 | 4.78 | 7.44 | 6.66 | 11.63 | –
COc1ccc2cc1Oc1ccc(cc1)C[C@H]1c3cc(c(OC)cc3CCN1C)Oc1c(OC)c(OC)cc3c1[C@H](C2)N(C)CC3 [TETRANDRINE] | – | – | – | – | 3.15 | 2.41 | 5.39 | 4.64 | 5.03 | 6.64 | 4.54 | –
Nc1ncnc2c1c(I)cn2[C@@H]1O[C@H](CO)C(O)C1O (some centres unmarked) [5-IODOTUBERCIDIN] | – | – | – | – | -0.41 | 6.65 | 9.13 | 18.27 | 30.70 | 6.10 | 11.74 | –
CCCCCCCC/C=C\CCCCCCCC(=O)NCCc1ccc(O)c(O)c1 [Oleoyl dopamine] | – | – | – | – | 2.78 | 1.51 | 12.34 | 3.21 | 3.30 | 1.32 | 4.08 | –
INDIRUBIN | – | – | – | – | – | – | 6.43 and 6.44 | – | 3.42 and 6.60 | – | 17.88 and 8.26 | –
COC(=O)C1=C(C)NC(C)=C(C(=O)OCCCN2CCC(c3ccccc3)(c3ccccc3)CC2)[C@H]1c1cccc([N+](=O)[O-])c1 [NIGULDIPINE] | – | – | – | – | – | – | – | – | – | – | – | Average Fluorescence (n = 6): 4.12; Fluorescence Plate 1: 5.07; Fluorescence Plate 2: 1.34; Fluorescence Plate 3: 3.34; Fluorescence Plate 4: 8.06; Fluorescence Plate 5: 6.06; Fluorescence Plate 6: 0.84
CC(N/C(=N\C#N)Nc1ccncc1)C(C)(C)C (centres unmarked) | 15.64 | 27.20 | 11.56 | 18.13 | – | – | – | – | – | – | – | –
C[C@@]12C(=O)OC(=O)[C@]1(C)[C@H]1CC[C@@H]2O1 [CANTHARIDIN] | – | – | – | – | 11.40 | −1.04 | 0.63 | 5.55 | 4.34 | 4.45 | 4.22 | –
CC(C)(C)c1cc(/C=C(\C#N)C(N)=S)cc(C(C)(C)C)c1O [AG-879] | – | – | – | – | 1.23 | 3.24 | 3.46 | 6.94 | 8.93 | 2.06 | 4.31 | –
CCCCC/C=C\C/C=C\C/C=C\C/C=C\CCCCCC(=O)NCCc1ccc(O)c(O)c1 [Docosatetra-7Z,10Z,13Z,16Z-enoyl dopamine] | – | – | – | – | – | – | – | – | – | – | – | Average Fluorescence (n = 6): 4.71; Fluorescence Plate 1: −1.65; Fluorescence Plate 2: 5.21; Fluorescence Plate 3: 7.47; Fluorescence Plate 4: 2.30; Fluorescence Plate 5: 9.50; Fluorescence Plate 6: 5.44
Cn1cc(C2=C(c3cn(CCCSC(=N)N)c4ccccc34)C(=O)NC2=O)c2ccccc21 [Ro 31-8220] | – | – | – | – | 17.56 | 50.61 | 46.79 | 38.49 | 31.21 | 34.94 | 36.60 | –
